Measurements as given in PubChem BioAssay AID1963871 (Molecular Pharmacology Branch, DTP, NCI, 2024).

Tested on: KRAS-mutant PDC multicell tumor spheroid viability
Test: Anticancer human tumor 521955-158-R2-J5-PDC patient-derived pancreatic carcinoma cell line growth inhibition [KRAS2]
Conditions: for IC50: curve of first compound; for viability, T/C: stronger effect = lower value
Description: Multicellular complex tumor spheroid response to RAS pathway inhibitors in combination with a targeted agents in patient-derived cell lines with oncogenic KRAS variants from multiple cancer types
A high-throughput screen of multi-cell type tumor spheroids was designed to identify active combinations of targeted small molecules and KRAS pathway inhibitors. Complex spheroids include a stromal component modeled by human endothelial cells (HUVEC) and fibroblasts modeled by human mesenchymal stem cells (MSCs). The concentration ranges selected for each drug and investigational agent were based upon clinically achievable concentrations if the clinical Cmax of the agent was known.
Compounds. The drugs and investigational agents: BI-3406 (NSC825286), BAY-293 (NSC824723), batoprotafib (TNO155; NSC825523), sotorasib (AMG 510; NSC818433), MRTX1257 (NSC819558), elimusertib (BAY 1895344; NSC800525), molibresib (GSK525762; NSC774829), temuterkib (LY3214996; NSC803410), venetoclax (NSC766270), alisertib (NSC759677), olaparib (NSC753686), talazoparib (NSC767125), erdafitinib (NSC781556), ipatasertib (NSC767898), cabozantinib (NSC761068), nintedanib (NSC756659), abemaciclib (NSC768073), docetaxel (NSC628503), trametinib (NSC758246), and sapanisertib (NSC764658) were obtained from the National Cancer Institute (NCI) Developmental Therapeutics Program Chemical Repository. The FDA-approved anticancer drug set is available from the Developmental Therapeutics Program. […] The stock solutions were prepared in dimethyl sulfoxide (DMSO, Sigma-Aldrich, St. Louis, MO, cat. D2650) at 800-fold the tested concentration and stored at -70 degrees C prior to their use. All drugs and investigational agents were tested over a range starting from a high concentration at or near the clinical Cmax and decreasing in half-log increments. If the clinical Cmax for an agent had not been determined, the highest concentration tested was 10 microM.
Cell Culture. All cells were maintained in an incubator at 37 degrees C and 5% CO2 with 95% humidity. The PDC lines were cultured according to standard operating procedures established by the NCI PDMR (https://pdmr.cancer.gov/sops/default.htm). Briefly, all PDCs were thawed and cultured in Matrigel-coated flasks prepared with a working solution of 1X Ham's F-12 nutrient mix, without supplementation (Invitrogen, Waltham, MA, cat. 11765054), 100 U/mL penicillin-streptomycin (Invitrogen, cat. 15140122), and 2.5% Matrigel (Corning Inc., Corning, NY, cat. 354248) for the first three passages. All PDCs were cultured in complete DMEM/F-12 media containing advanced DMEM/F-12 (Invitrogen, cat. 12634028), 4.9% defined fetal bovine serum, heat inactivated (HyClone Laboratories Inc., Logan, UT, cat. SH30070.03HI), 389 ng/mL hydrocortisone (Sigma-Aldrich, cat. H4001), 9.7 ng/mL human EGF recombinant protein (Invitrogen, cat. PHG0313), 23.4 microg/mL adenine (Sigma-Aldrich, cat. A2786), 97.3 U/mL penicillin-streptomycin (Invitrogen, cat. 15140122), 1.9 mM L-glutamine (Invitrogen, cat. 25030081), and 9.7 microM Y-27632 dihydrochloride (Tocris Bioscience, Bristol, United Kingdom, cat. 1254). The PDCs were cultured in complete DMEM/F12 media without 9.7 microM Y-27632 dihydrochloride for at least two passages prior to the screen. The established cell line HOP-62 was cultured in RPMI 1640 medium, HEPES (Invitrogen, cat. 22400105) with 10% defined fetal bovine serum (HyClone Laboratories Inc., cat. SH30070.03) and 2 mM L-glutamine (Invitrogen, cat. 25030081). The pooled donor HUVEC were cultured in endothelial cell growth medium 2 (PromoCell, Heidelberg, Germany, cat. C-22011) and the hMSC were cultured in mesenchymal stem cell growth medium 2 (PromoCell, cat. C-28009). For all experiments, HUVEC and hMSC were used at passages </=5, while the malignant cell lines were used at passages </=15. […]

[1] = second compound 0.1 µM, first compound 0.0316 µM
[2] = second compound 0.1 µM, first compound 0.1 µM
[3] = second compound 0.1 µM, first compound 0.316 µM
[4] = second compound 0.1 µM, first compound 1 µM
[5] = second compound 0.1 µM, first compound 3.16 µM
[6] = second compound 0.1 µM, first compound 10 µM
[7] = second compound 0.316 µM, first compound 0.0316 µM
[8] = second compound 0.316 µM, first compound 0.1 µM
[9] = second compound 0.316 µM, first compound 0.316 µM
[10] = second compound 0.316 µM, first compound 1 µM
[11] = second compound 0.316 µM, first compound 3.16 µM
[12] = second compound 0.316 µM, first compound 10 µM
[13] = second compound 1 µM, first compound 0.0316 µM
[14] = second compound 1 µM, first compound 0.1 µM
[15] = second compound 1 µM, first compound 0.316 µM
[16] = second compound 1 µM, first compound 1 µM
[17] = second compound 1 µM, first compound 3.16 µM
[18] = second compound 1 µM, first compound 10 µM
[19] = second compound 3.16 µM, first compound 0.0316 µM
[20] = second compound 3.16 µM, first compound 0.1 µM
[21] = second compound 3.16 µM, first compound 0.316 µM
[22] = second compound 3.16 µM, first compound 1 µM
[23] = second compound 3.16 µM, first compound 3.16 µM
[24] = second compound 3.16 µM, first compound 10 µM
[25] = second compound 10 µM, first compound 0.0316 µM
[26] = second compound 10 µM, first compound 0.1 µM
[27] = second compound 10 µM, first compound 0.316 µM
[28] = second compound 10 µM, first compound 1 µM
[29] = second compound 10 µM, first compound 3.16 µM
[30] = second compound 10 µM, first compound 10 µM
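Further: viability read after seven days of drug exposure.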

CCNC(=O)CC1N=C(c2ccc(Cl)cc2)c2cc(OC)ccc2-n2c(C)nnc21 (stereo not given) + CNCc1ccccc1-c1csc(C(C)Nc2nc(C)nc3cc(OC)c(OC)cc23)c1
IC50 (second compound 0.1 µM): 509 nM
IC50 (second compound 0.316 µM): 388 nM
IC50 (second compound 1 µM): 360 nM
IC50 (second compound 3.16 µM): < 31.6 nM
IC50 (second compound 10 µM): < 31.6 nM
viability, T/C [1]: 108%
viability, T/C [2]: 87.9%
viability, T/C [3]: 56.1%
viability, T/C [4]: 41.4%
viability, T/C [5]: 32%
viability, T/C [6]: 31.4%
viability, T/C [7]: 105%
viability, T/C [8]: 93%
viability, T/C [9]: 53.3%
viability, T/C [10]: 34.3%
viability, T/C [11]: 28.6%
viability, T/C [12]: 30.6%
viability, T/C [13]: 99%
viability, T/C [14]: 92.2%
viability, T/C [15]: 51.8%
viability, T/C [16]: 34.9%
viability, T/C [17]: 32.5%
viability, T/C [18]: 31.3%
viability, T/C [19]: 0.37%
viability, T/C [20]: 0.16%
viability, T/C [21]: 0.27%
viability, T/C [22]: 0.08%
viability, T/C [23]: 0.08%
viability, T/C [24]: 0.19%
viability, T/C [25]: 0.15%
viability, T/C [26]: 0.14%
viability, T/C [27]: 0.12%
viability, T/C [28]: 0.8%
viability, T/C [29]: 0.13%
viability, T/C [30]: 0.36%

O=C(c1cc(Cc2n[nH]c(=O)c3ccccc23)ccc1F)N1CCN(C(=O)C2CC2)CC1 + CC1OCC2(CCN(c3cnc(Sc4ccnc(N)c4Cl)c(N)n3)CC2)C1N
IC50 (second compound 0.1 µM): > 10000 nM
IC50 (second compound 0.316 µM): < 31.6 nM
IC50 (second compound 1 µM): > 10000 nM
IC50 (second compound 3.16 µM): < 31.6 nM
IC50 (second compound 10 µM): 725 nM
viability, T/C [1]: 67.2%
viability, T/C [2]: 71.2%
viability, T/C [3]: 57.2%
viability, T/C [4]: 55%
viability, T/C [5]: 53.3%
viability, T/C [6]: 58%
viability, T/C [7]: 48.7%
viability, T/C [8]: 48.6%
viability, T/C [9]: 46.8%
viability, T/C [10]: 49.1%
viability, T/C [11]: 49.8%
viability, T/C [12]: 40.2%
viability, T/C [13]: 106%
viability, T/C [14]: 118%
viability, T/C [15]: 92.3%
viability, T/C [16]: 83.9%
viability, T/C [17]: 74.1%
viability, T/C [18]: 56.8%
viability, T/C [19]: 30.4%
viability, T/C [20]: 35.5%
viability, T/C [21]: 37.9%
viability, T/C [22]: 35.9%
viability, T/C [23]: 38.6%
viability, T/C [24]: 33.6%
viability, T/C [25]: 43.2%
viability, T/C [26]: 44.3%
viability, T/C [27]: 86.8%
viability, T/C [28]: 46.9%
viability, T/C [29]: 44%
viability, T/C [30]: 39.3%

CC1(C)CCC(CN2CCN(c3ccc(C(=O)NS(=O)(=O)c4ccc(NCC5CCOCC5)c([N+](=O)[O-])c4)c(Oc4cnc5[nH]ccc5c4)c3)CC2)=C(c2ccc(Cl)cc2)C1 + COc1cc2nc(C)nc(NC(C)c3cc(N)cc(C(F)(F)F)c3)c2cc1OC1CCOC1
IC50 (second compound 0.1 µM): 6340 nM
IC50 (second compound 0.316 µM): 5020 nM
IC50 (second compound 1 µM): 3650 nM
IC50 (second compound 3.16 µM): 2000 nM
IC50 (second compound 10 µM): 391 nM
viability, T/C [1]: 74.8%
viability, T/C [2]: 82.6%
viability, T/C [3]: 92.4%
viability, T/C [4]: 93.3%
viability, T/C [5]: 82.9%
viability, T/C [6]: 28.2%
viability, T/C [7]: 74.5%
viability, T/C [8]: 82.8%
viability, T/C [9]: 86%
viability, T/C [10]: 80.5%
viability, T/C [11]: 70.9%
viability, T/C [12]: 18.8%
viability, T/C [13]: 71.9%
viability, T/C [14]: 78.2%
viability, T/C [15]: 82.6%
viability, T/C [16]: 81.3%
viability, T/C [17]: 55.7%
viability, T/C [18]: 10.8%
viability, T/C [19]: 81%
viability, T/C [20]: 82.4%
viability, T/C [21]: 86.1%
viability, T/C [22]: 80%
viability, T/C [23]: 30.2%
viability, T/C [24]: 12.2%
viability, T/C [25]: 55.7%
viability, T/C [26]: 52.6%
viability, T/C [27]: 51.3%
viability, T/C [28]: 36.8%
viability, T/C [29]: 2.22%
viability, T/C [30]: 1.29%

COc1cc(Nc2ncc3c(n2)-c2ccc(Cl)cc2C(c2c(F)cccc2OC)=NC3)ccc1C(=O)O + CC1OCC2(CCN(c3cnc(Sc4ccnc(N)c4Cl)c(N)n3)CC2)C1N
IC50 (second compound 0.1 µM): < 31.6 nM
IC50 (second compound 0.316 µM): < 31.6 nM
IC50 (second compound 1 µM): < 31.6 nM
IC50 (second compound 3.16 µM): < 31.6 nM
IC50 (second compound 10 µM): < 31.6 nM
viability, T/C [1]: 44.6%
viability, T/C [2]: 45.2%
viability, T/C [3]: 39.7%
viability, T/C [4]: 38.8%
viability, T/C [5]: 37.2%
viability, T/C [6]: 37.4%
viability, T/C [7]: 41%
viability, T/C [8]: 39.3%
viability, T/C [9]: 45.5%
viability, T/C [10]: 34.4%
viability, T/C [11]: 36.4%
viability, T/C [12]: 35.8%
viability, T/C [13]: 39.5%
viability, T/C [14]: 35.1%
viability, T/C [15]: 38.1%
viability, T/C [16]: 36%
viability, T/C [17]: 34.5%
viability, T/C [18]: 30.5%
viability, T/C [19]: 38.4%
viability, T/C [20]: 31.1%
viability, T/C [21]: 30.8%
viability, T/C [22]: 30%
viability, T/C [23]: 28.2%
viability, T/C [24]: 33.6%
viability, T/C [25]: 37.8%
viability, T/C [26]: 37.7%
viability, T/C [27]: 36%
viability, T/C [28]: 37.1%
viability, T/C [29]: 27.1%
viability, T/C [30]: 31.1%

O=C(c1cc(Cc2n[nH]c(=O)c3ccccc23)ccc1F)N1CCN(C(=O)C2CC2)CC1 + C=CC(=O)N1CCN(c2nc(=O)n(-c3c(C)ccnc3C(C)C)c3nc(-c4c(O)cccc4F)c(F)cc23)C(C)C1
IC50 (second compound 0.1 µM): > 10000 nM
IC50 (second compound 0.316 µM): > 10000 nM
IC50 (second compound 1 µM): > 10000 nM
IC50 (second compound 3.16 µM): > 10000 nM
IC50 (second compound 10 µM): > 10000 nM
viability, T/C [1]: 115%
viability, T/C [2]: 120%
viability, T/C [3]: 97.1%
viability, T/C [4]: 89.6%
viability, T/C [5]: 94.2%
viability, T/C [6]: 64.8%
viability, T/C [7]: 122%
viability, T/C [8]: 110%
viability, T/C [9]: 116%
viability, T/C [10]: 103%
viability, T/C [11]: 93.1%
viability, T/C [12]: 77.7%
viability, T/C [13]: 122%
viability, T/C [14]: 115%
viability, T/C [15]: 122%
viability, T/C [16]: 103%
viability, T/C [17]: 92.9%
viability, T/C [18]: 73.5%
viability, T/C [19]: 99.1%
viability, T/C [20]: 109%
viability, T/C [21]: 93.9%
viability, T/C [22]: 102%
viability, T/C [23]: 92.6%
viability, T/C [24]: 68.9%
viability, T/C [25]: 63.5%
viability, T/C [26]: 61.9%
viability, T/C [27]: 65.6%
viability, T/C [28]: 66.2%
viability, T/C [29]: 68.9%
viability, T/C [30]: 43.4%
